Laboratory results from US20060069132A1, “Azolecarboxamide herbicides” (priority 2004, published 2006).

What was measured:
rice [1] = assay: Test B pre-/postemergence herbicide test; type: in vivo, Oryza sativa; details: 0 = no effect, 100 = complete control, preemergence
How it was run: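 Species tested were Echinochloa crus-galli, Ipomoea coccinea, Xanthium strumarium and Oryza sativa, treated both before emergence and at the 1- to 4-leaf stage; rice and barnyardgrass were also tested under flooding at 2 leaves. Greenhouse incubation lasted 13–15 days before visual 0–100 scoring.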

velvetleaf = assay: Test B pre-/postemergence herbicide test; type: in vivo, Abutilon theophrasti; details: for Velvetleaf plant response rating: postemergence
How it was run: (§1)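 Greenhouse pot assay with simultaneous preemergence (treated seed) and postemergence (2–18 cm seedlings) applications of surfactant-containing, non-phytotoxic solvent formulations. Response scored visually 13–15 days later on a 0–100 scale, 100 meaning complete control.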

pigweed = assay: Test B pre-/postemergence herbicide test; type: in vivo, Amaranthus retroflexus; details: for Pigweed plant response rating: postemergence
How it was run: as §1

lambsquarters = assay: Test B pre-/postemergence herbicide test; type: in vivo, Chenopodium album; details: for Lambsquarters plant response rating: postemergence
How it was run: as §1

cocklebur = assay: Test B pre-/postemergence herbicide test; type: in vivo, Xanthium strumarium; details: for Cocklebur plant response rating: postemergence, scale 0 (no effect) to 100 (complete control)
How it was run: as §1

rice [2] = assay: Test B flooded paddy test; type: in vivo, Oryza sativa; details: 1000 g ai/ha, scale 0 to 100 (0 no effect, 100 complete control)
How it was run: (§2)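 Greenhouse test; postemergence application to plants at 1–4 leaves (2–18 cm); paddy species at 2 leaves; evaluated visually vs controls at 13–15 days; scale 0–100 (100 = complete control).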

Surinam grass = assay: Test B pre-/postemergence herbicide test; type: in vivo, Urochloa decumbens; details: for Surinam Grass plant response rating: postemergence
How it was run: as §1

barnyardgrass [3] = assay: Test C flooded paddy test; type: in vivo, Echinochloa crus-galli
How it was run: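 Postemergence sprays were applied to plants 2 to 18 cm tall (1- to 4-leaf stage); in the flooded paddy test, barnyardgrass was grown to the 2-leaf stage. After 12 to 14 days in a greenhouse, injury was visually rated against untreated controls on a 0–100 scale (100 = complete control).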

large crabgrass = assay: Test B pre-/postemergence herbicide test; type: in vivo, Digitaria sanguinalis; details: for Crabgrass, Large plant response rating: postemergence
How it was run: as §1

barnyardgrass [4] = assay: Test B flooded paddy test; type: in vivo, Echinochloa crus-galli; details: 1000 g ai/ha, scale 0 to 100 (0 no effect, 100 complete control)
How it was run: as §2

ducksalad [5] = assay: Test B flooded paddy test; type: in vivo, Heteranthera limosa; details: 1000 g ai/ha, scale 0 to 100 (0 no effect, 100 complete control)
How it was run: as §2

morningglory = assay: Test B pre-/postemergence herbicide test; type: in vivo, Ipomoea coccinea; details: for Morningglory plant response rating: postemergence
How it was run: as §1

blackgrass = assay: Test B postemergence herbicide test; type: in vivo, Alopecurus myosuroides; details: postemergence, visual rating, scale 0 (no effect) to 100 (complete control)
How it was run: as §2

corn = assay: Test B pre-/postemergence herbicide test; type: in vivo, Zea mays; details: for Corn plant response rating: postemergence
How it was run: as §1

wheat = assay: Test B postemergence herbicide test; type: in vivo, Triticum aestivum; set-up: key to Wheat plant response rating: 0 = no effect, 100 = complete control; details: postemergence
How it was run: (§3)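 Read-out: visual comparison with controls, scored 0 to 100, where 100 means complete control and 0 no effect. Formulated chemicals were applied postemergence to plants 2–18 cm tall (1- to 4-leaf), or to flooded-paddy plants at the 2-leaf stage, then held 13 to 15 days under glass.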

rice [6] = assay: Test C flooded paddy test; type: in vivo, Oryza sativa
How it was run: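 Postemergence sprays applied to plants 2 to 18 cm tall (1- to 4-leaf stage); paddy species grown to 2-leaf stage under flooding. After 12 to 14 days in greenhouse, visual rating versus untreated controls on 0–100 scale (0 no effect, 100 complete control).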

giant foxtail = assay: Test B pre-/postemergence herbicide test; type: in vivo, Setaria faberi; details: for Foxtail, Giant plant response rating: postemergence
How it was run: as §1

ducksalad [7] = assay: Test C flooded paddy test; type: in vivo, Heteranthera limosa
wild oat = assay: Test B postemergence herbicide test; type: in vivo, Avena fatua; details: postemergence
How it was run: as §3

[8] = test system: smallflower umbrella sedge; assay: Test C flooded paddy test; type: in vivo, Cyperus difformis
[9] = test system: small flower umbrella sedge; assay: Test B flooded paddy test; type: in vivo, Cyperus difformis; details: 1000 g ai/ha, scale 0 to 100 (0 no effect, 100 complete control)
How it was run: as §2

barnyardgrass [10] = assay: Test B pre-/postemergence herbicide test; type: in vivo, Echinochloa crus-galli; details: for Barnyardgrass plant response rating: postemergence, scale 0 (no effect) to 100 (complete control)
How it was run: as §1

[11] = 125 g ai/ha, 0 = no effect, 100 = complete control, preemergence
[12] = 500 g ai/ha, visual rating, 0 = no effect, 100 = complete control, preemergence
[13] = 125 g ai/ha, visual rating, scale 0 (no effect) to 100 (complete control)
[14] = 500 g ai/ha, scale 0 to 100, 0 is no effect, 100 is complete control
[15] = 62 g ai/ha, scale 0 to 100 (0 no effect, 100 complete control)
[16] = 125 g ai/ha, scale 0 to 100 (0 no effect, 100 complete control)
[17] = 250 g ai/ha, scale of 0 to 100, 0 is no effect, 100 is complete control
[18] = 500 g ai/ha, visual rating after 12 to 14 days, scale 0 to 100 (0 no effect, 100 complete control)

CCn1nc(C(C)(C)C)cc1C(=O)Nc1cc(C(=O)N2CCOCC2)ccc1F [Compound 243]
100: Plant response rating, Velvetleaf (velvetleaf; [12]) | Plant response rating, Pigweed (pigweed; [12]) | Plant response rating, Lambsquarters (lambsquarters; [12]) | Plant response rating, Crabgrass, Large (large crabgrass; [12])
0: Cocklebur plant response rating (0 to 100 scale) (cocklebur; [11]) | Barnyardgrass plant response rating (barnyardgrass [3]; [15]) | Morningglory plant response rating (0 to 100 scale) (morningglory; [11]) | Plant response rating, Morningglory (morningglory; [12]) | Morningglory plant response rating (morningglory; [13]) | Blackgrass plant response rating (blackgrass; 125 g ai/ha) | Blackgrass plant response rating (blackgrass; 500 g ai/ha) | Wheat plant response rating (wheat; [13]) | Wheat plant response rating (wheat; [14]) | Oat, Wild plant response rating (wild oat; [13])
30: Cocklebur plant response rating (cocklebur; 500 g ai/ha, visual rating)
10: Cocklebur plant response rating (cocklebur; 125 g ai/ha, visual rating) | Surinam Grass plant response rating (Surinam grass; [13]) | Crabgrass, Large plant response rating (large crabgrass; [13]) | Crabgrass, Large plant response rating (large crabgrass; [14]) | Corn plant response rating (corn; [13]) | Corn plant response rating (corn; [14]) | Foxtail, Giant plant response rating (giant foxtail; [13]) | Barnyardgrass plant response rating (barnyardgrass [10]; 125 g ai/ha, visual rating)
65: Barnyardgrass plant response rating (barnyardgrass [3]; [16])
90: Lambsquarters plant response rating (0 to 100 scale) (lambsquarters; [11]) | Rice plant response rating (rice [2]) | Barnyardgrass plant response rating (barnyardgrass [4]) | Ducksalad plant response rating (ducksalad [5]) | Plant response rating, Rice (rice [6]; [18]) | Ducksalad plant response rating (ducksalad [7]; [17]) | Plant response rating, Ducksalad (ducksalad [7]; [18]) | Plant response rating, Barnyardgrass (barnyardgrass [10]; [12])
80: Plant response rating, Rice (rice [1]; 500 g ai/ha, visual rating) | Lambsquarters plant response rating (lambsquarters; [14]) | Plant response rating, Surinam Grass (Surinam grass; [12]) | Rice plant response rating (rice [6]; [17]) | Plant response rating, Foxtail, Giant (giant foxtail; [12]) | Sedge, Umbrella plant response rating [8, 16] | Sedge, Umbrella plant response rating [8, 17] | Plant response rating, Sedge, Umbrella [8, 18] | Sedge, Umbrella plant response rating [9]
15: Rice plant response rating (rice [6]; [15])
40: Velvetleaf plant response rating (0 to 100 scale) (velvetleaf; [11])
60: Velvetleaf plant response rating (velvetleaf; [14]) | Pigweed plant response rating (0 to 100 scale) (pigweed; [11]) | Pigweed plant response rating (pigweed; [14]) | Surinam Grass plant response rating (0 to 100 scale) (Surinam grass; [11]) | Crabgrass, Large plant response rating (0 to 100 scale) (large crabgrass; [11])
50: Velvetleaf plant response rating (velvetleaf; [13]) | Plant response rating, Corn (corn; [12]) | Foxtail, Giant plant response rating (0 to 100 scale) (giant foxtail; [11])
85: Plant response rating, Barnyardgrass (barnyardgrass [3]; [18]) | Ducksalad plant response rating (ducksalad [7]; [16])
20: Rice plant response rating (0 to 100 scale) (rice [1]; 125 g ai/ha) | Pigweed plant response rating (pigweed; [13]) | Plant response rating, Cocklebur (cocklebur; [12]) | Surinam Grass plant response rating (Surinam grass; [14]) | Morningglory plant response rating (morningglory; [14]) | Corn plant response rating (0 to 100 scale) (corn; [11]) | Foxtail, Giant plant response rating (giant foxtail; [14]) | Oat, Wild plant response rating (wild oat; [14]) | Barnyardgrass plant response rating (barnyardgrass [10]; 500 g ai/ha, visual rating)
75: Barnyardgrass plant response rating (barnyardgrass [3]; [17]) | Rice plant response rating (rice [6]; [16]) | Ducksalad plant response rating (ducksalad [7]; [15]) | Sedge, Umbrella plant response rating [8, 15]
70: Lambsquarters plant response rating (lambsquarters; [13]) | Barnyardgrass plant response rating (0 to 100 scale) (barnyardgrass [10]; [11])
